The source of these data is patent US11395822B2, “Methods for treating Huntington's disease” (PTC Therapeutics, Inc., priority 2017, dated 2022).

By IC50 is commonly meant the concentration needed to halve the response being measured. Read a low IC50 as greater potency.

Some results are limits rather than exact numbers.

This test concerns Endogenous Huntingtin Protein. In words: Endogenous Huntingtin Protein Assay (ELISA-based MSD electrochemiluminescence). In kind it is cell-based. Particulars: MSD plates coated with MW1 (expanded polyglutamine) or MAB2166 capture antibody. As to the method:
Compounds of Formula (I) were tested using the Meso Scale Discovery (MSD) Assay provided in International Application No. PCT/US2016/066042, filed on Dec. 11, 2016 and claiming priority to U.S. Provisional Application U.S. 62/265,652 filed on Dec. 10, 2015, and published as International Publication No. WO 2017/100726 on Jun. 15, 2017, the entire contents of which are incorporated herein by reference.
The Endogenous Huntingtin Protein assay used in Example 1 was developed using the ELISA-based MSD electrochemiluminescence assay platform.
Endogenous Huntingtin Protein Assay
Meso Scale Discovery (MSD) 96-well or 384-well plates were coated overnight at 4° C. with MW1 (expanded polyglutamine) or MAB2166 monoclonal antibody (for capture) at a concentration of 1 μg/mL in PBS (30 μL per well). Plates were then washed three times with […] wash buffer (0.05% Tween-20 in PBS) and blocked (100 μL blocking buffer; 5% BSA in PBS) for 4-5 hours at room temperature with rotational shaking and then washed three times with wash buffer.
Samples (25 μL) were transferred to the antibody-coated MSD plate and incubated overnight at 4° C. After removal of the lysates, the plate was washed three times with wash buffer, and 25 μL of #5656S (Cell signaling; rabbit monoclonal) secondary antibody (diluted to 0.25 μg/mL in 0.05% Tween-20 in blocking buffer) was added to each well and incubated with shaking for 1 Hour at room temperature. Following incubation with the secondary antibody, the wells were rinsed with wash buffer after which 25 μL of goat anti-rabbit SULFO TAG secondary detection antibody (required aspect of the MSD system) (diluted to 0.25 μg/mL in 0.05% Tween-20 in blocking buffer) was added to each well and incubated with shaking for 1 hour at room temperature. After rinsing three times with wash buffer, 150 μL of read buffer T with surfactant (MSD) were added to each empty well, and the plate was imaged on a SI 6000 imager (MSD) according to manufacturers' instructions provided for 96- or 384-well plates.
A general note: An ELISA detects its analyte on a solid surface through an enzyme-linked reagent.
Turning to `Cc1cn2nc(-c3cc(=O)n4cc(N5CCNC6(CC6)C5)cc(C)c4n3)cc(C)c2n1` [Compound 905, 2-(2,8-dimethylimidazo[1,2-b]pyridazin-6-yl)-9-methyl-7-(4,7-diazaspiro[2.5]octan-7-yl)-4H-pyrido[1,2-a]pyrimidin-4-one], the IC50 lay in the range of 1000 to 3000 nM.

In turn, `Cc1cn2nc(-c3cc(=O)n4cc(N5CCN[C@H](C)C5)ccc4n3)cc(C)c2n1` [Compound 886, (R)-2-(2,8-dimethylimidazo[1,2-b]pyridazin-6-yl)-7-(3-methylpiperazin-1-yl)-4H-pyrido[1,2-a]pyrimidin-4-one] showed an IC50 of at most 100 nM.

With `Cc1cn2nc(-c3cc(=O)n4cc(N5CCNC(C)(C)C5)ccc4n3)cc(C)c2n1` [Compound 899, 2-(2,8-dimethylimidazo[1,2-b]pyridazin-6-yl)-7-(3,3-dimethylpiperazin-1-yl)-4H-pyrido[1,2-a]pyrimidin-4-one], the IC50 was 100 to 500 nM.
